The values below come from patent US7150886B2, “Composition for treating diseased liver” (Industrial Technology Research Institute, priority 2002, dated 2006).

Assay [1] deals with rats with d-galactosamine-induced acute hepatitis. The assay is described as follows: D-galactosamine-induced acute hepatitis in rats, serum GOT and GPT. It is filed as in vivo. Conditions: rat serum 24 h after d-galactosamine i.p. (500 mg/kg); test substance oral × 3, dose per group as in Table 3; N = 5.
Procedure: The liver enzymes were dramatically released to the blood stream when the hepatocyte was damaged, and thus the serum GOT and GPT values increased. […] In other words, the restoration effects of the extracts on the damaged liver were evaluated through comparing the GOT and GPT variations before and after a treatment of the extracts.
Five male rats were divided in each group, each rat with body weight about 200±20 g. […] The reference group was orally given guanine (300 mg/kg). Half an hour later, each group was i.p. with d-galactosamine (500 mg/kg), except the control group. Four and eight hours after first injection, test substances were administered orally again at the same dose. After 24 hours, the animals were sacrificed, and the blood was collected from the carotid arteries. The serum was separated and incubated at room temperature for 10 minutes, and then centrifuged (Backman centrifuge, GS-6R, 3000 rpm) for another 10 minutes. The activities of rat serum GOT (Glutamyl Oxaloacetic Transaminase) and GPT (Glutamyl Pyrubic Transaminase) were measured.
The test system of assay [2] is B type hepatitis. The following applies: treating B type hepatitis; cited from earlier work.

In assay [1], `Nc1nc2nc[nH]c2c(=O)[nH]1` [Guanine, guanine] came in with a GOT of 1024.8 ± 91.1 U/L and a GPT of 602.4 ± 61.7 U/L.
interferon: the positive response in assay [2] is 20%.
